Measurements from patent publication US20240299393A1, “SMALL MOLECULE DISRUPTORS OF PROTEIN INTERACTIONS IN HISTONE DEACETYLASE COMPLEXES” (Dana-Farber Cancer Institute, Inc., priority 2021, published 2024).
Entries after “also recorded” stand apart in the source; their conditions may differ.

Tests used:
Sin3-Ume6 = target: T1, Sin3-Ume6 (Saccharomyces cerevisiae, UniProt P22579); experiment: GPCA binary PPI inhibition in HEK293T cells, Sin3-Ume6; format: cell-based, human HEK293T cells
T1 construct: ORFs corresponding to full-length subunits of the Rpd3L HDAC complex were PCR-amplified from yeast genomic DNA; expressed in transfected cells; host or cells: HEK293T
T1 sequence (P22579 whole entry): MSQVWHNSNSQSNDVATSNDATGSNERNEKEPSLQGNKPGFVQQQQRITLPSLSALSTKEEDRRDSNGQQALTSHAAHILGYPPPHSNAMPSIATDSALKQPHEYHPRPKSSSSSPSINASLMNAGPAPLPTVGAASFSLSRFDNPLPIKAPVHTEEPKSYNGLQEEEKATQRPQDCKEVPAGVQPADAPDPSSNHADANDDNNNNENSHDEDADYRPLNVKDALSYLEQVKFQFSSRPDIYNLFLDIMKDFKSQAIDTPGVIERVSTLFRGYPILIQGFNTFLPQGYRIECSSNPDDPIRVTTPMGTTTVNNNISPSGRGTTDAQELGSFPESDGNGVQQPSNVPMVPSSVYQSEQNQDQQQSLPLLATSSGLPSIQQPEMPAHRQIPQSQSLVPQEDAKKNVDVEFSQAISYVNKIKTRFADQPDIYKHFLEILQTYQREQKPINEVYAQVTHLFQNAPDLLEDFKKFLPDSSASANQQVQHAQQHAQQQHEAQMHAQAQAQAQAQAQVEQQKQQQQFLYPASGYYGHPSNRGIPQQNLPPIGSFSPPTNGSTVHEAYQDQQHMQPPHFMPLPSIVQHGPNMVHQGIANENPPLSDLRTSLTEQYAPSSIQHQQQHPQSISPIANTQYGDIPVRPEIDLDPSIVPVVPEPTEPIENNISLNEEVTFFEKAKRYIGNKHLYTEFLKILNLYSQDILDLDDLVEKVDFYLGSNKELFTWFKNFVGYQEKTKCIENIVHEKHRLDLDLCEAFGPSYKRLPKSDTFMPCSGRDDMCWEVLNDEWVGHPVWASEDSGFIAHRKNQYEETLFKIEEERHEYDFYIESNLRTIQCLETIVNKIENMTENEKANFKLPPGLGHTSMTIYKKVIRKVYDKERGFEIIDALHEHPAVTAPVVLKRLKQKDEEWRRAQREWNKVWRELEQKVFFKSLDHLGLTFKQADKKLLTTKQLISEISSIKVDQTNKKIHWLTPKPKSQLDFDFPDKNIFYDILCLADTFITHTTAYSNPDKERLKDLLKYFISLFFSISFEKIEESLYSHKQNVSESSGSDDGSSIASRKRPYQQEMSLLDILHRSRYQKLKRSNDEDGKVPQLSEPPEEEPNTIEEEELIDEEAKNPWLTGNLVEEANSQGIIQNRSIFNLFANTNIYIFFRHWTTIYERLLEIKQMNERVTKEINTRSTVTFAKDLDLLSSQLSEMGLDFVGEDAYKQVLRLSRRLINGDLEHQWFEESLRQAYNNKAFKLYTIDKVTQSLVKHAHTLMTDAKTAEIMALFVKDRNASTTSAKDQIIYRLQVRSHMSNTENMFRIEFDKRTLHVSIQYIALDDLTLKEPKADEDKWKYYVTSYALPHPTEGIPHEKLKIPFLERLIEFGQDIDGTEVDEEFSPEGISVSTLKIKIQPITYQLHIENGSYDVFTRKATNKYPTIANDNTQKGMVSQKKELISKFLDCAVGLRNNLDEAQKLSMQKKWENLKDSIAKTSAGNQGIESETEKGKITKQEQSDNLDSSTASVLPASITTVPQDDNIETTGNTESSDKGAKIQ
Procedure: GPCA (N1-N2 version) was implemented as reported in [Choi et al 2019]. HEK293T cells were seeded at 6×10^4 cells per well in 96-well, flat-bottom, cell culture microplates (Greiner Bio-One, #655083), and cultured in Dulbecco's modified Eagle's medium (DMEM) supplemented with 10% fetal calf serum at 37° C. and 5% CO2. Twenty-four hours later, cells were transfected with 100 ng of each GPCA plasmid (GPCA-N1 and GPCA-N2) using linear polyethylenimine (PEI) to co-express the protein pairs fused with complementary luciferase fragments, Luc1 and Luc2. The DNA/PEI ratio used for transfection was 1:3 (mass:mass). […] Luminescence was measured by auto-injecting 50 μL Renilla luciferase substrate (Renilla Luciferase Assay system, catalog No. E2820, Promega) per well and integrating light output for 4 s using a TriStar luminometer (Berthold).
The ability of compounds to inhibit binary PPIs in the Sin3/Rpd3L HDAC complex was tested by GPCA in a high-throughput screening format. […] The luminescence signal for each PPI was measured by averaging the different DMSO replicates, and calculating the standard deviation of DMSO values for each interaction. […] For each interaction, a particular compound was scored as a PPI inhibitor when it decreased its luminescence signal by at least three standard deviations compared to the corresponding averaged DMSO value. […]

human SIN3A PAH2 domain = target: T2, human SIN3A PAH2 domain (Homo sapiens, UniProt Q96ST3); experiment: Ligand-detected NMR, human SIN3A PAH2; format: binding, H. sapiens; conditions: 300 μM compound, 10 μM protein
T2 construct: Residues 301-390 of human SIN3A (PAH2 domain) were inserted into the pMALC2XE vector for NMR experiments; made in house; host or cells: E. coli BL21 (DE3)
T2 sequence (Q96ST3 301-390): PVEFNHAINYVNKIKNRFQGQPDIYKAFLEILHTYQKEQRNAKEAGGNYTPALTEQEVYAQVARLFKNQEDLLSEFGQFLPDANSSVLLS
Procedure: Ligand-detected NMR experiments: all results were acquired using a 3 mm tube at 25° C. on a Bruker 600 MHz Avance II system equipped with a CPPTCI cryoprobe (Bruker BioSpin Corp.). In all experiments, the concentration of E6R was fixed at 300 μM (from a stock of 25 mM in deuterated DMSO) and the concentration of the protein at 10 μM. The volume of deuterated DMSO was kept constant (1.5%) in all tested samples. Right before the experiments, the compound and protein were diluted in 1×PBS containing 0.1% deuterated dithiothreitol (DTT) to a total volume of 200 μL. Samples were diluted by 5% with D2O for magnetic field lock. Spectra were acquired for ligand only, protein only, and ligand+protein. […] STD experiments [Mayer et al 2001] were acquired with 160 scans, with protein irradiation applied for 3 s at 0 ppm and −20 ppm for the on and off resonance experiments, respectively. On and off resonance spectra were collected and stored separately. One-dimensional CPMG-R2 edited experiments [Hajduk et al 1997] were collected for samples with and without proteins using seven CPMG delays (0, 25, 50, 100, 300, 500, and 800 ms) with four scans per delay. Proton spectra used to measure DLB and chemical shift perturbations in the absence and presence of the proteins were recorded with 16 scans using a recycle delay of 3 s. […]

SMILES	inhibition of Sin3-Ume6 PPI (fold change over DMSO) (Sin3-Ume6; 10 μM, 1 h) [fold]	inhibition of Sin3-Ume6 PPI (Sin3-Ume6; GPCA)	binding to human SIN3A PAH2 by NMR (human SIN3A PAH2 domain)
CC(NC(=O)c1c(O)n2ccccc2nc1=O)c1ccccc1 (racemic) [E6]	~2.5	selectively inhibit	
C[C@@H](NC(=O)c1c(O)n2ccccc2nc1=O)c1ccccc1 [E6R, 4-hydroxy-2-oxo-N—((R)-1-phenylethyl)-3,4-dihydro-2H-pyrido[, 2-a]pyrimidine-3-carboxamide]			could bind; also recorded: virtually identical to those of yeast Sin3 PAH2
